Data set [1] has as its system genes that control liver gluconeogenesis and lipid synthesis. The data set is described as follows: expression of glucose- and lipid-related genes in in vitro models. Format: cell-based. As for the experimental part:
(§1) The compound 2,2,15,15-tetramethylhexadecane-1,16-dioic acid (also designated M16αα), and also the compounds […] (M18αα) and 2,2,19,19-tetramethyl-[…]-1,20-dioic acid (M20αα), were tested for their effect on glucose uptake and production, and the expression of glucose- and lipid-related genes in in vitro models. […] Inhibition of glucose production was tested in HepG2 human liver cells.

The nature of data set [2]: half-life in dogs. The settings on record: dog, in vivo, read-out: half-life (T1/2) (converted). An excerpt: The half-life (T1/2) of Medica compounds in humans differs considerably from their half-life in model animals. […] This difference in half-life could not be expected, and is of considerable significance when designing a new treatment protocol for humans.
Data set [3] has as its system HepG2 human liver cells. Put plainly: inhibition of glucose production in HepG2 cells. It counts as cell-based. The method, then: as §1
Data set [4] relates to animal models. Put plainly: plasma lipid lowering in animal models. Format: in vivo.
Data set [5] concerns Type 2 Diabetes Mellitus (T2D) patients. Put plainly: 4-week M16αα study in T2D patients, safety and tolerability. It counts as in vivo, human. The settings on record: 40 mg/day oral, 28 days. The method, then: T2D patients, non-treated or treated with SoC antidiabetic drugs as outlined below, were screened for eligibility (inclusion/exclusion according to criteria detailed below), followed by being randomly allocated to receive once daily either add-on M16αα (40 mg M16αα plus 130 mg microcrystalline cellulose in gelatin capsules) or add-on placebo (130 mg microcrystalline cellulose in gelatin capsules), in addition to the SoC anti-diabetic treatment they have been receiving regularly. One patient was not under SoC anti-diabetic drug treatment. Sixteen (16) patients were randomized to M16αα treatment and 3 patients were randomized to placebo treatment. Patients randomized to M16αα treatment were dosed for 28 days with add-on M16αα in double-blinded manner, followed by 4-week recovery period using add-on placebo in a single-blinded manner. Patients randomized to placebo treatment were dosed for 28 days with add-on placebo in double-blinded manner.
The primary safety endpoint was the frequency, severity, and duration of adverse events (AEs), including clinically significant laboratory abnormalities after administration of M16αα.
Safety was evaluated on the basis of the following assessments: Adverse events (AEs)—continuous (starting from informed consent signature until end of study); vital signs; 12-lead ECG; physical examination; safety laboratory evaluations (blood and urine). […]

The target of data set [6] is Signal transducer and activator of transcription 3 (STAT3) (Homo sapiens, UniProt P40763). Put plainly: transcriptional activity of STAT3.
In data set [7] the target is mammalian target of rapamycin (mTORC1) (Homo sapiens, UniProt P42345). The data set is described as follows: modulation of mTORC1 activity.
Data set [8] deals with rats. The settings on record: WO98/30530, cited from earlier work.

Signal transducer and activator of transcription 3 (STAT3), sequence (P40763 whole entry, species assumed): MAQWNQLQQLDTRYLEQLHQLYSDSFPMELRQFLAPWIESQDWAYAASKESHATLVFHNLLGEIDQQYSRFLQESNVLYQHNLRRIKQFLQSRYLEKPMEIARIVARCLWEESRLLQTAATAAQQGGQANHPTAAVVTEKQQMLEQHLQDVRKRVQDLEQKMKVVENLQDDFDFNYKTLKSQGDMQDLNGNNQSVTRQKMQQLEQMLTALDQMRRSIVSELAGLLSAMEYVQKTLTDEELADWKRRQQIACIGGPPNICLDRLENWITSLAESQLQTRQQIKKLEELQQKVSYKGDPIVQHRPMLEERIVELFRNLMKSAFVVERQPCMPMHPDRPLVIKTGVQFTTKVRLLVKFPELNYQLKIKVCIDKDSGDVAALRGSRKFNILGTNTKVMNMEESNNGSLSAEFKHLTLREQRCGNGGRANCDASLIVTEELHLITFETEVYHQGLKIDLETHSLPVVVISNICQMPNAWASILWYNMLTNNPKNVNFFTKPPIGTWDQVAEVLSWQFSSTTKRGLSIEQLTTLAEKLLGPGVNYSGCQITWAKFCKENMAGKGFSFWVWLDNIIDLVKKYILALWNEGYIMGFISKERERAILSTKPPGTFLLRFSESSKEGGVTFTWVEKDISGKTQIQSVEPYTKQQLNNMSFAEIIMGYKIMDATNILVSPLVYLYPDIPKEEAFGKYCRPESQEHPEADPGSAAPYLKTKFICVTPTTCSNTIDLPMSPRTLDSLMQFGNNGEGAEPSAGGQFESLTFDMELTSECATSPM

With `CC(C)(CCCCCCCCCCCCC(C)(C)C(=O)O)C(=O)O` [M16αα, 2,2,15,15-tetramethyl-hexadecane-1,16-dioic acid], the “expression of genes that control liver gluconeogenesis and lipid synthesis” value in data set [1] is reported as “effective in inhibiting”. In data set [2], the half-life was 65 h. In data set [3], the hepatic glucose production result was “significant or full inhibition”. Further, in data set [4], the “plasma LDL-cholesterol” value is given as “statin-like efficacy in lowering plasma LDL-cholesterol” and the plasma triglycerides result is “robust decrease of plasma triglycerides”. In data set [5], the “serious adverse events (SAE)” value was “No serious adverse events (SAE) were recorded”; the tolerability and safety result is “well tolerated and safe”. For the same compound, in data set [6], the “transcriptional activity of STAT3” value is “suppressing”. The mTORC1 activity result in data set [7] is given as “suppressing”. The plasma lipids entry in data set [8] (hyperlipidemic animal models) is listed as “normalization of plasma lipids”. Moreover, in data set [8] (normolipidemic animals), the “plasma triglycerides and cholesterol” value was “decrease in plasma triglycerides and cholesterol”. For the same compound, the hypolipidemic activity result in data set [8] (rats) was “potent hypolipidemic agent”.

The values are drawn from patent US11207285B2, “Diabetes treatment regimens using alpha, alpha-substituted long-chain amphipathic carboxylates” (SYNDROMEX LTD., priority 2016, dated 2021).
